The results in this text go back to ChEMBL document CHEMBL4007424, “Design and Synthesis of Enantiomerically Pure Decahydroquinoxalines as Potent and Selective κ-Opioid Receptor Agonists with Anti-Inflammatory Activity in Vivo” (J Med Chem, 2017).

Active and inactive are the calls of the source. The calls are words filed in the database; no cut-off is given here.

Tested on in one data set: not listed separately
The data set can be described thus: Ratio of drug level in brain to plasma in Wistar Han rat at 1 mg/kg, iv after 1 hr. In kind it is ADME, organism-based. To be noted: read-out: BPR.
Turning to `COC(=O)CN1CCN(C(=O)Cc2ccc(Cl)c(Cl)c2)[C@@H]2[C@@H](N3CCCC3)CCC[C@@H]21.Cl`, the Kp at 1 h was found to be 0.02.

As to `CC(C)NC(=O)N1CCN(C(=O)Cc2ccc(Cl)c(Cl)c2)[C@@H]2[C@@H](N3CCCC3)CCC[C@@H]21.Cl`, the Kp at 1 h is 0.02.

As to `CS(=O)(=O)N1CCN(C(=O)Cc2ccc(Cl)c(Cl)c2)[C@@H]2[C@@H](N3CCCC3)CCC[C@@H]21.Cl`, the Kp at 1 h stood at 0.02.

The test system of the next data set is Rattus norvegicus. The data set can be described thus: Toxicity in Wistar Han rat assessed as clinical signs changes at 1 mg/kg, iv after 1 hr. The conditions noted are these: in vivo. In kind it is organism-based.
Regarding `COC(=O)CN1CCN(C(=O)Cc2ccc(Cl)c(Cl)c2)[C@@H]2[C@@H](N3CCCC3)CCC[C@@H]21.Cl`, the Activity entry is reported as “Non-Toxic”.

For `CC(C)NC(=O)N1CCN(C(=O)Cc2ccc(Cl)c(Cl)c2)[C@@H]2[C@@H](N3CCCC3)CCC[C@@H]21.Cl`, the Activity entry is listed as “Non-Toxic”.

Take `CS(=O)(=O)N1CCN(C(=O)Cc2ccc(Cl)c(Cl)c2)[C@@H]2[C@@H](N3CCCC3)CCC[C@@H]21.Cl`: the Activity entry is reported as “Non-Toxic”.

A further data set concerns Mus musculus. Kind of data set: Antiinflammatory activity in tropically administered oxazolone-induced delayed type hypersensitivity BALB/c mouse model assessed as effect on ear weight administered 3 hrs prior to oxazolone challenge on day 7 to 12 post sensitization followed by re-administration of compound on day 13 to 18 without oxazolone challenge measured on day 19.
Conditions: not given
In kind it is functional.
For `COC(=O)N1CCN(C(=O)Cc2ccc(F)c(F)c2)[C@@H]2[C@@H](N3CC[C@H](O)C3)CCC[C@@H]21`, the Activity entry was “Dose-dependent effect”.

The target of another data set is Mu-type opioid receptor (Cavia porcellus) (UniProt P97266). Kind of data set: Displacement of [3H]DAMGO from mu-type opioid receptor in guinea pig brain membranes at 1 uM after 120 mins by solid scintillation counting. In kind it is cell membranes. To be noted: Membrane. (In general: Displacement assays read how much labelled ligand stays bound in the presence of the test substance.)
Chain of Mu-type opioid receptor (Cavia porcellus) (P97266 whole entry): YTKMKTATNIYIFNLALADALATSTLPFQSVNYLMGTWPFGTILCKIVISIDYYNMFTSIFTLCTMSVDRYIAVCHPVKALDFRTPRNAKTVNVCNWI
In turn, `COC(=O)N1CCN(C(=O)Cc2ccc(F)c(F)c2)[C@@H]2[C@@H](N3CC[C@H](O)C3)CCC[C@@H]21` registered an inhibition of 4%.

The subject of a further data set is Mus musculus. The data set can be described thus: Antiinflammatory activity in oxazolone-induced delayed type hypersensitivity BALB/c mouse model assessed as reduction in ear thickness at 0.5 mg applied topically on ear administered 3 hrs prior to oxazolone challenge on day 7 to 12 post sensitization followed by re-administration of compound on day 13 to 18 without oxazolone challenge measured on day 19. In kind it is functional.
Conditions: not given
Regarding `COC(=O)N1CCN(C(=O)Cc2ccc(F)c(F)c2)[C@@H]2[C@@H](N3CC[C@H](O)C3)CCC[C@@H]21`, the outcome was Active.

Another data set has as its system Mus musculus. The data set can be described thus: Antiinflammatory activity in oxazolone-induced delayed type hypersensitivity BALB/c mouse model assessed as effect on histology changes at 0.1 to 2.5 mg applied topically on ear administered 3 hrs prior to oxazolone challenge on day 7 to 12 post sensitization followed by re-administration of compound on day 13 to 18 without oxazolone challenge measured daily prior to treatment from day 7 to 19 by H and E staining based assay. Type of data set: functional.
Conditions: not given
Take `COC(=O)N1CCN(C(=O)Cc2ccc(F)c(F)c2)[C@@H]2[C@@H](N3CC[C@H](O)C3)CCC[C@@H]21`: the result was Active.

In a further data set the target is Kappa-type opioid receptor (Homo sapiens, UniProt P41145). Kind of data set: Agonist activity at recombinant human kappa-type opioid receptor expressed in HEK293 cells at 1 uM after 30 mins by [35S]GTPgammaS binding assay. Type of data set: functional, cell-based.
Chain of Kappa-type opioid receptor (P41145 whole entry): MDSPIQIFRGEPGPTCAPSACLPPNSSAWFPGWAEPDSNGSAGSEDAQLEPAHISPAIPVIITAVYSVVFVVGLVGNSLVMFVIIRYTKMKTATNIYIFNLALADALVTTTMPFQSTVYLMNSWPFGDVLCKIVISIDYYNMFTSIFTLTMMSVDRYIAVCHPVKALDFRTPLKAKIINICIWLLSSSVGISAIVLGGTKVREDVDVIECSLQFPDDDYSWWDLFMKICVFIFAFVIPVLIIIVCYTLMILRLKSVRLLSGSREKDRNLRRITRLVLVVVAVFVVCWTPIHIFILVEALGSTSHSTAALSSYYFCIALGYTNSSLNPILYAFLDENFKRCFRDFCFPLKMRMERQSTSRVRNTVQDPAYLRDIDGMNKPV
Conditions: not given
Take `COC(=O)N1CCN(C(=O)Cc2ccc(F)c(F)c2)[C@@H]2[C@@H](N3CC[C@H](O)C3)CCC[C@@H]21`: the Activity was 108%.

For another data set, the species on record is Sus scrofa. The data set can be described thus: Displacement of [3H]-(+)-MK 801 from PCP binding site of NMDA receptor in pig brain cortex membranes at 10 uM after 120 mins by solid scintillation counting. Type of data set: cell membranes.
Conditions: not given
Compound `COC(=O)N1CCN(C(=O)Cc2ccc(F)c(F)c2)[C@@H]2[C@@H](N3CC[C@H](O)C3)CCC[C@@H]21` registered an inhibition of 11%.

Tested on in another data set: not listed separately
Kind of data set: Plasma concentration in Wistar Han rat at 1 mg/kg, iv measured 1 hr post compound administration. Type of data set: ADME, organism-based.
Conditions: not given
`COC(=O)CN1CCN(C(=O)Cc2ccc(Cl)c(Cl)c2)[C@@H]2[C@@H](N3CCCC3)CCC[C@@H]21.Cl`: the concentration at 1 h was found to be 199 ng/mL.

As for `CC(C)NC(=O)N1CCN(C(=O)Cc2ccc(Cl)c(Cl)c2)[C@@H]2[C@@H](N3CCCC3)CCC[C@@H]21.Cl`, the concentration at 1 h was found to be 130 ng/mL.

For `CS(=O)(=O)N1CCN(C(=O)Cc2ccc(Cl)c(Cl)c2)[C@@H]2[C@@H](N3CCCC3)CCC[C@@H]21.Cl`, the concentration at 1 h was 124 ng/mL.

Tested on in the next data set: not listed separately
Kind of data set: Drug level in Wistar Han rat brain at 1 mg/kg, iv measured 1 hr post compound administration. In kind it is ADME, organism-based. The conditions noted are these: Wistar Han, brain, read-out: Drug uptake.
For the compound `COC(=O)CN1CCN(C(=O)Cc2ccc(Cl)c(Cl)c2)[C@@H]2[C@@H](N3CCCC3)CCC[C@@H]21.Cl`, the concentration at 1 h came to 4.6 ng/g.

As for `CC(C)NC(=O)N1CCN(C(=O)Cc2ccc(Cl)c(Cl)c2)[C@@H]2[C@@H](N3CCCC3)CCC[C@@H]21.Cl`, the concentration at 1 h was found to be 2.9 ng/g.

With `CS(=O)(=O)N1CCN(C(=O)Cc2ccc(Cl)c(Cl)c2)[C@@H]2[C@@H](N3CCCC3)CCC[C@@H]21.Cl`, the concentration at 1 h was determined as 2.9 ng/g.

A further data set is filed under the species Rattus norvegicus. The data set can be described thus: Displacement of [3H]-DTG from sigma 2 receptor in rat liver membranes at 1 uM after 120 mins by scintillation counting. The conditions noted are these: Membrane. In kind it is cell membranes.
`COC(=O)N1CCN(C(=O)Cc2ccc(F)c(F)c2)[C@@H]2[C@@H](N3CC[C@H](O)C3)CCC[C@@H]21` showed an inhibition of 10%.

The test system of a further data set is Mus musculus. Kind of data set: Antiinflammatory activity in oxazolone-induced delayed type hypersensitivity BALB/c mouse model assessed as reduction in ear weight at 0.1 to 2.5 mg applied topically on ear administered 3 hrs prior to oxazolone challenge on day 7 to 12 post sensitization followed by re-administration of compound on day 13 to 18 without oxazolone challenge measured on day 19. In kind it is functional.
Conditions: not given
With `COC(=O)N1CCN(C(=O)Cc2ccc(F)c(F)c2)[C@@H]2[C@@H](N3CC[C@H](O)C3)CCC[C@@H]21`, the Activity result was “Dose-dependent effect”.

Tested on in the next data set: not listed separately
Kind of data set: Plasma concentration in Wistar Han rat at 1 mg/kg, iv measured 0.25 hrs post compound administration. In kind it is ADME, organism-based.
Conditions: not given
In the case of `COC(=O)CN1CCN(C(=O)Cc2ccc(Cl)c(Cl)c2)[C@@H]2[C@@H](N3CCCC3)CCC[C@@H]21.Cl`, the concentration at 0.25 h worked out at 477 ng/mL.

`CC(C)NC(=O)N1CCN(C(=O)Cc2ccc(Cl)c(Cl)c2)[C@@H]2[C@@H](N3CCCC3)CCC[C@@H]21.Cl` came in with a concentration at 0.25 h of 290 ng/mL.

`CS(=O)(=O)N1CCN(C(=O)Cc2ccc(Cl)c(Cl)c2)[C@@H]2[C@@H](N3CCCC3)CCC[C@@H]21.Cl` yielded a concentration at 0.25 h of 246 ng/mL.

In a further data set the target is Sigma non-opioid intracellular receptor 1 (Cavia porcellus) (UniProt Q60492). Kind of data set: Displacement of [3H]-(+)-pentazocine from sigma1-type […] receptor in guinea pig cortex membranes at 1 uM after 120 mins by solid scintillation counting. In kind it is cell membranes.
Chain of Sigma non-opioid intracellular receptor 1 (Cavia porcellus) (Q60492 whole entry): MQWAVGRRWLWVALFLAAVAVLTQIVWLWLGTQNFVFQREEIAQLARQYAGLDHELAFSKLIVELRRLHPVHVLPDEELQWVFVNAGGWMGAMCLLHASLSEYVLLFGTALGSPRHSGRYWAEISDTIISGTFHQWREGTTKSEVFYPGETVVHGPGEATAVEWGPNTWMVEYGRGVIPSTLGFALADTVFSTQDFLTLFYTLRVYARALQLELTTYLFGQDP
Conditions: not given
As to `COC(=O)N1CCN(C(=O)Cc2ccc(F)c(F)c2)[C@@H]2[C@@H](N3CC[C@H](O)C3)CCC[C@@H]21`, the inhibition is 34%.

Broadly, the inhibition is the share of the control response that was lost under treatment. Read a low inhibition as a response near the control.
